Patent US7939530B2, “Treatment of lymphoma using 10-propargyl-10-deazaaminopterin and gemcitabine” (Sloan-Kettering Institute for Cancer Research, priority 2004, dated 2011)

What was measured:
[1] = system: SKI-DLCL-1 lymphoma cells; experiment: Trypan Blue Exclusion cytotoxicity assay of single agents and combinations; assay type: cell-based, human; details: MTX 10 nM, PDX 1 nM, Ara-C 40 nM, Gem 10 nM, control = 1
Text: As set forth in greater detail in the examples herein, combination therapy using PDX and gemcitabine has been tested in vitro and in in vivo model systems for efficacy against lymphoma. Table 1 sets forth data obtained in a cytotoxicity assay (Example 2) using SKI-DLCL-1 lymphoma cells. SKI-DLCL-1 is a diffuse large b cell lymphoma (DLBCL) cell line that is particularly resistant to PDX.
In Table 1, the additive effect is in each case the % of control for the single agents multiplied together. The expected additive effect for PDX+Gem is better than for MTX and ara-C, because the agents are individually better. What is observed for both MTX/AraC combinations and PDX/Gem combinations is that the actual result is better than the predicted additive result. The extent of this synergism is quantified in Table 1 as (actual-additive)/additive so that the amount of reduction that occurs through the use of the combination is expressed as a percentage of the expected additive benefit.
To evaluate cytotoxicity of combination of PDX and GEM, a Trypan Blue Exclusion Assay was performed by aliquoting 5×10^5 SKI-DLBCL cells into each well of a 24 well plate with a final volume of 1 milliliter. Each drug was added in duplicate to the plate wells as follows: alone (MTX 10 nM, PDX 1 nM, Ara-C 40 nM, or Gem 10 nM), PDX+Gem or MTX+Ara-C for 48 h (hours). For the scheduled administration of drug, PDX or MTX alone were dispensed in additional duplicate wells. After 24 hours Gem and Ara-C were added to these wells, respectively, and incubated for 48 hours. At the end of incubation, 20 l of each cell culture was added to 20 l of trypan blue, after which […] was added to a hemocytometer (Hausser Scientific, Horsham, Pa.), where viable cells were counted based upon the presence (dead cells) or exclusion (live cells) of dye.

[2] = system: SKI-DLCL-1 cells; experiment: Induction of apoptosis (YO-PRO-1/propidium iodide flow cytometry); assay type: cell-based, human; details: all drugs 1 nM, total exposure 72 hours, sequential: first drug 24 hours prior to second
Protocol: Ara-C, PDX and Gem in combined and scheduled exposures. In each case, the total exposure time was 72 hours. In sequential treatments, the first drug was administered 24 hours prior to the second drug.
To assess apoptosis occurring as a result of combination therapies, apoptosis was assessed using two well standardized techniques. In the first (YO-PRO), cell membrane permeability was determined by measuring fluorescence of treated and control cells. 2×10^7 SKI-DLBCL cells were treated with either MTX, Ara-C, Gem or PDX alone or combinations of drug given together or scheduled. All drugs were assayed at equimolar concentrations (i.e. 1 nM). The incubation conditions were modeled after the in vitro cytotoxicity experiments. Single agent drugs or combinations of all drugs studied without schedule considerations were incubated for 72 hours, while drugs that were studied in some schedule were introduced in a 24+48 incubation scheme (i.e. drug B added 24 hours following drug A, then incubated for an additional 48 hours for a total incubation time of 72 hours). Cells were then collected, washed twice and re-suspended at a concentration of 1×10^6/mL in DPBS. Membrane permeability was detected via the differential cellular permeability of the fluorescent dyes YO-PRO®-1 and propidium iodide by flow cytometry, as per the manufacturer's guidelines (Vybrant apoptosis kit #4, Molecular Probes, Eugene, Oreg.). In addition to monitoring apoptosis, cell cycle kinetic analyses were also performed on all treated cells based the propidium iodide binding. Apoptotic cells were noted to be permeable to the green fluorescent dye YO-PRO®-1 (em 530, FL-1), and impermeable to the red fluorescent dye propidium iodide (em 575, FL-3). Typically, […] cells allow the entrance of both dyes, whereas living cells are impermeable to both dyes.

[3] = system: caspase 3 in SKI-DLCL-1 cells; experiment: Caspase 3 activation (EnzChek Caspase-3 Assay Kit #2, Z-DEVD-R110 cleavage); assay type: cell-based, human; details: for Fluorescence at 485ex/527em: 1 nM, control 134.3; for Difference from control: fluorescence at 485ex/527em
Protocol: To further evaluate the activity of PDX and Gem combinations, Caspase activity was tested by EnzChek® Caspase-3 Assay Kit #2 (Molecular Probes) based upon the fluorometric detection of caspase-dependent Z-DEVD-R110 cleavage (rhodamine 110 bis-[N-CBZ-L-aspartyl-L-glutamyl-L-valyl-L-aspartic acid amide], a non-fluorescent bisamide), which, via a two step process, first yields the monoamide product (weakly fluorescent) and then the fluorescent product R110 (rhodamine 110, strongly fluorescent). Detection was performed on a Fluoroskan Ascent FL fluorescent plate reader (Thermo Lab Systems, Helsinki, Finland) according to the manufacturer's guidelines.

[4] = system: human HT (diffuse large B cell) non-Hodgkin's lymphoma xenografts; experiment: Subcutaneous lymphoma xenograft treatment; assay type: in vivo; details: MTX 40 mg/kg; for Avg Tumor Diameter (mm ± SE): at the nadir of tumor regression
Text: (§1) In order to study the effects of PDX on lymphoma growth in vivo, subcutaneous transplantation models in NOD/SCID mice were generated using three established human lymphoma cell line representative of aggressive transformed FL (RL) and de novo extranodal DLBCL (HT; SKI-DLCL-1) histologies. Six to eight week old non-obsese diabetic severe combined immunodeficient (NOD/SCID) mice (Jackson Laboratories, Bar Harbor, Me.) were sub-lethally irradiated with […] from a gamma source and inoculated with 10×10^6 lymphoma cells via a subcutaneous route. When tumor volumes approached 100 mm^3, mice were divided into three groups, averaging 3-8 mice per group. Mice were treated with normal saline or the maximum tolerated dose (MTD) of MTX (40 mg/kg) or PDX (60 mg/kg) via an intraperitoneal route twice weekly for two weeks (four total doses). […] (Sirotnak, et al., Cancer Chemother. Pharmacol. 12: 26-30 (1984); Sirotnak et al., Cancer Chemother. Pharmacol. 42: 313-318 (1998).
(§2) Engraftment rates in this experiment ranged from 80 to 90%. Palpable tumors formed under the skin approximately 7-10 days after inoculation and were readily measurable with calipers. Mice with subcutaneous lymphoma growths survived an average of 40-50 days after inoculation.

[5] = system: human RL (transformed follicular) non-Hodgkin's lymphoma xenografts; experiment: Subcutaneous lymphoma xenograft treatment; assay type: in vivo; details: MTX 40 mg/kg
Text: as §1, §2

[6] = system: human SKI-DLCL-1 (de novo diffuse large B cell) non-Hodgkin's lymphoma xenografts; experiment: Subcutaneous lymphoma xenograft treatment; assay type: in vivo; details: MTX 40 mg/kg
Text: as §1, §2

[7] = system: subcutaneous tumors of SKI; experiment: Preliminary combination xenograft experiment; assay type: in vivo, irradiated NOD-SCID mice; details: for tumor growth compared to the control: MTX 40 mg/kg (MTD), Ara-C 300 mg/kg (MTD) or combination at one-half the MTD, all sacrificed by week three
Protocol: Given the experience that SKI-DLCL-1 is the most PDX resistant line in the panel, it was selected for these in vivo synergy experiments. […] All animals were treated with the maximum tolerated dose (MTD) of each drug, save the combination studies.

[8] = system: SKI-DLBCL-1 xenograft; experiment: Second combination xenograft experiment (FIG. 5); details: SKI-DLBCL; PDX and Gem at one-quarter of the MTD (15 mg/kg); MTX, Ara-C alone at MTD; ip twice weekly, 4 doses
Protocol: (§3) The same type of test was repeated to assess the in vivo efficacy of using combination therapies. […] Schedule dependent treatment was also determined by pretreating animals with PDX or MTX followed 24 hours later with Gem or Ara-C, respectively. One cohort of animals was treated with Gem followed by PDX. In all cases, the control animals received intraperitoneal injections of normal saline.
(§4) Tumor bearing mice were assessed for weight loss and tumor volume at least twice weekly for the duration of the experiment. The data are expressed as the average tumor volume (mm3) per group as a function of time. Tumors were assessed by measuring the two largest perpendicular axes (l=length, w=width) with standard calipers. Tumor volume was calculated using the formula 4/3 πr^3 where r=(l+w)/4. Animals were sacrificed when one dimensional tumor diameter exceeded 2.0 cm, or after loss of more than 10% of their body weight in accordance with institutional guidelines. Animals were housed in standard shoe box cages in temperature and humidity constant rooms on a 12 hour light and dark cycle. Food and water were supplied ad libitum. Animals were maintained in core animal facilities under an institute approved animal protocol.

[9] = system: SKI-DLBCL-1 xenografts; experiment: TUNEL immunohistochemical staining for apoptosis in xenografts; assay type: in vivo, mice; details: day 21; four doses on days 0, 3, 7 and 10; MTX 40 mg/kg, PDX 60 mg/kg
Protocol: Immunohistochemical staining for apoptosis as measured by terminal deoxynucleotide transferase-mediated nick end-labeling (TUNEL) was performed on SKI-DLBCL-1 xenografts from mice sacrificed at day 21 following initiation of antifolate therapy. Mice received four doses of saline, MTX (40 mg/kg) or PDX (60 mg/kg) on days 0, 3, 7 and 10.

[10] = cited from earlier work
[11] = Second combination xenograft experiment (FIG. 5); details: SCID beige (CBSCBG-MM double), mouse, in vivo, ip
Protocol: as §3, §4

[12] = PDX 60 mg/kg ip twice weekly for two weeks

| SMILES | fraction of control [1] | % change in apoptosis [2] [%] | Fluorescence at 485ex/527em [3] | Difference from control [3] | tumor growth compared to the control [7] | xenograft outcome in words [8] | MTD at 2 weeks [11] [mg/kg] | further results |
| --- | --- | --- | --- | --- | --- | --- | --- | --- |
| CN(Cc1cnc2nc(N)nc(N)c2n1)c1ccc(C(=O)N[C@@H](CCC(=O)O)C(=O)O)cc1 [MTX, methotrexate] | 0.92 | −12.24 | 131 | −3.3 | modest growth delay | sacrificed early due to excessive tumor growth |  | Complete Regression (no/total) ([4]; PDX 60 mg/kg): 0/7; complete tumor regression (% of mice) ([4]; PDX 60 mg/kg): no tumor regression; Avg change in Tumor Volume (mm^3 ± SE) [4, 12]: +300 ± 225 mm^3; Avg Tumor Diameter (mm ± SE) ([4]; PDX 60 mg/kg): 8.7 ± 2.0 mm; Avg Tumor Diameter (mm ± SE) ([4]; PDX 60 mg/kg, listed as MDX): 8.7 mm; Complete Regression (no/total) ([5]; PDX 60 mg/kg): 0/12; tumor regressions (% of mice) ([5]; PDX 60 mg/kg): no regressions; Avg Tumor Diameter (mm ± SE) [5, 12]: 10.9 ± 0.5 mm; Avg change in Tumor Volume (mm^3 ± SE) [5, 12]: +619 ± 108 mm^3; Complete Regression (no/total) ([6]; PDX 60 mg/kg): 0/10; tumor regressions / complete remissions (% of mice) ([6]; PDX 60 mg/kg): no regressions; Avg Tumor Diameter (mm ± SE) [6, 12]: 9.5 ± 0.4 mm; Avg change in Tumor Volume (mm^3 ± SE) [6, 12]: +299 ± 58 mm^3; apoptotic cells in tumor tissue (TUNEL) [9]: little or no evidence of apoptotic cells; maximum tolerated dose (MTD) ([10]; intraperitoneal, twice weekly for two weeks): 40 mg/kg; toxic deaths at the MTD ([10]; nude mice): no toxic deaths |
| Nc1ccn([C@@H]2O[C@H](CO)[C@@H](O)C2(F)F)c(=O)n1 [Gem, 1-(2′,2′-difluoro-β-D-arabinofuranosyl) cytosine] | 0.72 | 33.76 | 195.4 | 61.1 |  |  | 60 | tumor volume as % of initial tumor volume ([7]; 60 mg/kg, regrowth by day 44 after initial response): 318% |
| Nc1ccn([C@@H]2O[C@H](CO)[C@@H](O)[C@@H]2O)c(=O)n1 [Ara-C, cytarabine] | 0.76 | −3.08 | 141.1 | 6.8 | modest growth delay | sacrificed early due to excessive tumor growth | 300 |  |
